Each block holds one compound with its values, some of them ahead of it.
Key:
[1] = target: T1, GPR17 (Rattus norvegicus, UniProt Q09QM4); assay: cAMP assay: inhibition of forskolin-stimulated adenylyl cyclase activity in primary OPCs; assay type: cell-based
T1 construct: oligodendrocyte precursor cells (OPCs) natively expressing GPR17; endogenous in cells; host or cells: primary OPCs from postnatal day 2 Sprague-Dawley rat cortex
Protocol: (§1) The pharmacological profile of Asinex 1 was assessed in three different in vitro assays of increasing complexity in oligodendrocyte precursor cells (OPCs) natively expressing GPR17. Primary rat OPCs were cultured either alone or in the presence of mouse DRG neurons, according to a well-established protocol, previously described in Fumagalli et al. ([2015]). The endogenous GPR17 ligands UDP and LTD4 were selected as reference ligands. For more details on culture preparation and analysis, see Supplementary Information.
In order to determine the intracellular cAMP levels, primary purified OPCs were treated with Asinex 1 after 6 days in culture, when GPR17 expression reaches the maximum peak. A competitive protein binding method was used following the procedure previously described (Fumagalli et al., [2015]). Briefly, culture medium was removed, and cells were incubated at 37°C for 15 min with 400 μL of Neurobasal medium in the presence of the phosphodiesterase inhibitor Ro20-1724 (20 μM). The concentration-response curve of tested ligands was assessed by measuring their ability to inhibit cAMP accumulation stimulated by 10 μM forskolin. Asinex 1 was added to cells for 15 min at graded concentration (0.1–50 nM). […] Reactions were terminated by medium removal and addition of 200 μL of 0.4 N HCl. After 30 min, lysates were neutralized with 50 μL of 4 N KOH, and the suspension was centrifuged at 800× g for 5 min. For determination of cAMP, cAMP-binding protein isolated from bovine adrenal glands was incubated with [^3H]cAMP (2 nM), 50 μL of cell lysate or cAMP standard (0–16 pmol) at 4°C for 150 min, in a total volume of 300 μL. Bound radioactivity was separated by rapid filtration through GF/C glass fiber filters and washed twice with 4 mL of 50 mM Tris-HCl, pH 7.4. Radioactivity was measured by liquid scintillation spectrometry.

[2] = test system: primary OPCs; assay: OPC differentiation assay (MBP+ cells, immunocytochemistry); assay type: cell-based, rat; conditions: 48 h
Protocol: as §1
(§2) GPR17 ligands were tested both in primary OPCs culture and in OPC/DRG co-cultures to assess their pro-differentiation and pro-myelination effect, respectively. According to the type of culture, a specific protocol of treatment was set up. For primary OPCs, cells were seeded on 13 mm poly-D,L-ornithine-coated coverslips (2 × 10^4 cells/well) and maintained for 2 days in Neurobasal medium supplemented with B27 and proliferative factors (PDGF-BB and bFGF). Afterwards, OPC differentiation was induced by removing proliferative factors and by adding T3 and pharmacological treatments with Asinex 1 (1 or 10 nM) and LTD4 (200 nM), selected as reference compound, were performed the following day. After 48 h, cells were fixed for immunocytochemistry (ICC). For OPC/DRG co-cultures, Asinex 1 (10 nM) and UDP (100 μM) were added to cultures at day 4. The pharmacological treatment was repeated every 2 days up to day 15, when cells were fixed for ICC analysis. For more details, see Supplementary Information.
Oligodendrocyte precursor cell cultures
Primary oligodendrocyte precursor cells (OPCs) were isolated from mixed glial cultures prepared from postnatal day 2 Sprague-Dawley rat cortex by shaking cells on an orbital shaker at 200 rpm, as previously described (Fumagalli et al., 2015). OPCs were then collected and separated from microglia by incubation for 1 h in an uncoated Petri dish. […]

[3] = test system: OPC-DRG co-cultures; assay: Myelination assay in OPC-DRG co-cultures (Myelination Index); assay type: cell-based, rat OPCs, mouse DRG neurons; conditions: day 4 to day 15
Protocol: as §1
as §2, with “The pharmacological treatment was repeated every 2 days up to day 15, when cells were fixed for ICC analysis. For more details, see Supplementary Information.” left out

[4] = test system: GPR17; design: method as in earlier work; conditions: literature functional assay, ref Abbracchio et al., 2006, Ciana et al., Eberini et al., 2011; cited from earlier work

T1 sequence (Q09QM4 whole entry): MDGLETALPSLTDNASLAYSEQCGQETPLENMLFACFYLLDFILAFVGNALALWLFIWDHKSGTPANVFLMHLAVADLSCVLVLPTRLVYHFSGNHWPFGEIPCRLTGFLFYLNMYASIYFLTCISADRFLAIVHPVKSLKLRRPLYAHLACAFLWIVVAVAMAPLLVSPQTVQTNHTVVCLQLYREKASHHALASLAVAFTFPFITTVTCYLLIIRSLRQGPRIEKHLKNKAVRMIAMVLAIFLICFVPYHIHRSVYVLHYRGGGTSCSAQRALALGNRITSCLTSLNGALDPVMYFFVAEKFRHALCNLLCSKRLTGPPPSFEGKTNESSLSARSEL

EC50 ([1]; primary OPCs, 10 μM forskolin, 0.1–50 nM, read-out: EC50, inhibition of forskolin-stimulated cAMP formation): 6.5 ± 0.8 nM
pharmacological profile at GPR17 ([1]; primary rat OPCs, nucleotide binding site): full agonist
SMILES: COc1ccc(-n2c(SC(C)C(=O)Nc3ccccc3)nnc2-c2ccccc2OC)cc1 (stereo not drawn) [Asinex 1, 2-[[5-(2-methoxyphenyl)-4-(4-methoxyphenyl)-4H-1,2,4-triazol-3-yl]thio]-N-phenyl-propanamide]
percentage of MBP+ cells (control set to 100%) ([2]; 1 nM): 166.5 ± 16.21%
percentage of MBP+ cells (control set to 100%) ([2]; 10 nM): 158.3 ± 15.77%
Myelination Index (control 100%) ([3]; 10 nM): 240.3 ± 64.43%

IC50 ([1]; primary OPCs, constant ASN 1 concentration of 10 nM, read-out: IC50, antagonism of ASN 1-mediated inhibition of forskolin-stimulated adenylyl cyclase activity): 10.2 ± 0.8 nM
SMILES: CSCCNc1nc(SCCC(F)(F)F)nc2c1ncn2[C@@H]1O[C@H](COP(=O)(O)OP(=O)(O)C(Cl)(Cl)P(=O)(O)O)[C@@H](O)[C@H]1O [Cangrelor]
ratio between Cangrelor and Asinex 1 affinities [4]: 7

SMILES: CCCCC/C=C\C\C=C/C=C/C=C/[C@@H](SC[C@H](N)C(=O)NCC(=O)O)[C@@H](O)CCCC(=O)O [LTD4]
percentage of MBP+ cells (control set to 100%) ([2]; 200 nM): 171.0 ± 21.70%

SMILES: O=c1ccn([C@@H]2O[C@H](COP(=O)(O)OP(=O)(O)O)[C@@H](O)[C@H]2O)c(=O)[nH]1 [UDP]
Myelination Index (control 100%) ([3]; 100 μM): 193.9 ± 32.31%
